Results taken from patent US4172148A, “Ruminant feeds containing trichloroethyl esters of essential amino acids” (E. R. Squibb & Sons, Inc., priority 1978, dated 1979).

How the values were obtained:
[1] = system: volatile fatty acid concentrations in the in vitro rumen fermentation; experiment: in vitro rumen fermentation, volatile fatty acids, alfalfa hay:concentrate 3:1 (Examples 3 and 12); design: species or system sheep; conditions: 0.2 mg/ml; 6 h, 39° C.
Description: (§1) A one gram sample of substrate ground through a 1 mm screen is weighed into 100 ml. lipless beakers equipped with gas-release valves. The substrate consists of alfalfa hay containing approximately 16% protein and a concentrate containing ground corn 60.7%, alfalfa meal 17.5%, molasses 10.0%, soybean meal 5.3%, wheat bran 5.0%, trace mineralized salt 1.0%, limestone 0.5% and Vitamin D 300,000 I.U./ton, mixed in the proportion 3:1. The experimental composition is added to the substrate. 25 ml. of filtered rumen fluid obtained from fasted sheep maintained on feed the same as the above mentioned substrate and 25 ml. of McDougal's buffer solution serve as the inoculum. The buffer solution is as follows:
(§2) The fermentation mixture is flushed with carbon dioxide and the vessel is capped with a gas release valve. The fermentation vessel (beaker) is placed in a water bath and incubated at 39° C.±1° for six hours. The sample is mixed every hour by shaking the beaker.
(§3) At the end of the 6-hour fermentation period the sample is strained through 4 layers of cheesecloth into a sample bottle containing 1 ml. saturated solution of mercuric chloride. The sample is frozen immediately until analyzed for the volatile fatty acids (VFA) (mg/100 ml.). Prior to analysis, each sample is acidified with 30% phosphoric acid and then analyzed by gas chromatography using a column containing 5% nonylphenoxypolyoxyethylene ethanol plus 0.5% phosphoric acid on 100-120 mesh Gas Chrom S. The acids determined are acetic, propionic, butyric, isobutyric, valeric and isovaleric acids. Total VFA is considered as the addition of these acids. The ratio of acetic: propionic (A:P) is obtained by dividing the concentration of acetic acid by that of propionic acid.
The effect of various compounds alone on the volatile fatty acid concentrations was determined by the procedure of Example 3. […] A direct comparison between phenylalanine and phenylalanine trichloroethyl ester is provided.

[2] = system: volatile fatty acid concentrations in the in vitro rumen fermentation; experiment: in vitro rumen fermentation, volatile fatty acids, high concentrate substrate, alfalfa hay:concentrate 1:3 (Examples 4 and 7); design: species or system sheep; conditions: for Acetic acid / Acetic:propionic / Butyric acid / Propionic acid / Total acids: hay:concentrate 1:3
Description: as §1, §2, §3
The procedure is described in Example 3. In this example, however, the substrate consisted of alfalfa hay and concentrate in the ratio of 1:3 and inoculum was obtained from sheep fed alfalfa and concentrate in the ratio of 1:3. The concentrate (Fit-N-Fresh) is commercially available from Agway, Inc. and contains grain products, plant protein products, processed grain by-products, cane molasses, minerals, vitamins and a preservative.
The 2,2,2-trichloroethyl ester of glycine was tested in vitro in a manner similar to that described in Example 4.

growing lambs = experiment: body weight gain and feed efficiency of growing lambs (Examples 9-11); format: in vivo, lambs (sheep); conditions: 0.0044% (40 g/ton) in feed
Description: A test was conducted to determine if feeding L-phenylalanine, 2,2,2-trichloroethyl ester to growing lambs was effective in improving growth and feed efficiency. Wether and ewe lambs were divided into groups of 30 lambs each. They were acclimated to their pens for 2 weeks prior to treatment.
The feed supplied to the animals had the following composition
The test compound in an amount of 0.0055% (50 g/ton) was admixed with the above feed composition.
Body weights and feed consumption were recorded at 0, 2, 4 and 6 weeks. Feed efficiencies were calculated.
The test procedure of Example 9 was followed to test the growth effect and feed efficiency of glycine 2,2,2-trichloroethyl ester on growing lambs. The feed composition of Example 9 was used but contained glycine 2,2,2-trichloroethyl ester in an amount of 0.0044% (40 g/ton). There were 44 lambs in the control group receiving the feed composition without additive and 42 lambs receiving the feed composition containing the amino acid ester.
The test procedure of Example 9 was followed to test the growth effect and feed efficiency of L-phenylalanine 2,2,2-trichloroethyl ester on growing lambs. The feed composition of Example 9 was used but contained 0.0088% (80 g/ton) of this amino acid ester. There were 59 lambs in the control group fed the feed without additive and 58 lambs in the group fed the feed composition containing the test compound.

[3] = system: volatile fatty acid concentrations in fistulated sheep; experiment: volatile fatty acid concentrations in vivo in fistulated sheep, 227 g concentrate and 680 g alfalfa hay (Examples 5 and 8)
Text: Mature sheep (wethers) fitted with permanent rumen fistulae were used to determine the effect of L-phenylalanine, 2,2,2-trichloroethyl ester on volatile fatty acid concentrations in vivo (3 wethers per treatment). The animals were individually penned and fed 227 g. of concentrate (described in Example 3) and 680 g. of alfalfa hay once daily. The test compound was admixed with the concentrate. The sheep were medicated for 7 days. Samples for analysis were obtained before (Day 0) and after treatment (Day 7) approximately 6 hours after feeding.

Compound: N[C@@H](Cc1ccc(Cl)cc1)C(=O)O (racemic) [p-chlorophenylalanine, reference compound]
- Acetic acid [1]: 91 % of control
- Acetic:propionic [1]: 101 % of control
- Butyric acid [1]: 92 % of control
- Propionic acid [1]: 91 % of control
- Total acids [1]: 91 % of control

Compound: O=CC(Cl)(Cl)Cl [choral, reference compound]
- Acetic acid [1]: 88 % of control
- Acetic:propionic [1]: 80 % of control
- Butyric acid [1]: 110 % of control
- Propionic acid [1]: 110 % of control
- Total acids [1]: 96 % of control

Compound: N[C@@H](Cc1ccccc1)C(=O)O [L-phenylalanine, reference compound]
- Acetic acid [1]: 95 % of control
- Acetic:propionic [1]: 100 % of control
- Butyric acid [1]: 97 % of control
- Propionic acid [1]: 94 % of control
- Total acids [1]: 96 % of control

Compound: Br.NCC(=O)OCC(Cl)(Cl)Cl [2,2,2-trichloroethyl ester of glycine, aminoacetic acid 2,2,2-trichloroethyl ester, hydrobromide]
- Acetic acid ([2]; 0.2 mg/ml): 79 % of control
- Acetic:propionic ([2]; 0.2 mg/ml): 64 % of control
- Butyric acid ([2]; 0.2 mg/ml): 119 % of control
- Propionic acid ([2]; 0.2 mg/ml): 123 % of control
- Total acids ([2]; 0.2 mg/ml): 98 % of control
- Acetic acid ([2]; 0.4 mg/ml): 79 % of control
- Acetic:propionic ([2]; 0.4 mg/ml): 64 % of control
- Butyric acid ([2]; 0.4 mg/ml): 119 % of control
- Propionic acid ([2]; 0.4 mg/ml): 123 % of control
- Total acids ([2]; 0.4 mg/ml): 98 % of control
- effect on acetic:propionic ratio (in words) ([2]; high concentrate substrate): decreasing the acetic:propionic ratio
- effect on propionic acid concentration (in words) ([2]; high concentrate substrate): effective in increasing propionic acid concentration
- Weight gain (growing lambs; 0-2 wks, control 2.32): 2.31 kg
- Weight gain (growing lambs; 0-4 wks, control 5.09): 5.13 kg
- Feed efficiency (growing lambs; 0-6 wks, control 0.148): 0.154 gain/feed
- Weight gain (growing lambs; 0-6 wks, control 7.18): 7.37 kg
- Acetic:propionic ratio ([3]; Example 8, 500 mg/head/day, treatment, pre-treatment 3.36, control treatment 3.38): 2.86
- Other acids (%) ([3]; Example 8, 500 mg/head/day, treatment, pre-treatment 6.1, control treatment 4.2): 6.6%
- Butyric acid (%) ([3]; Example 8, 500 mg/head/day, treatment, pre-treatment 15.1, control treatment 14.6): 17.9%
- Propionic acid (%) ([3]; Example 8, 500 mg/head/day, treatment, pre-treatment 18.1, control treatment 18.6): 19.6%
- Acetic acid (%) ([3]; Example 8, 500 mg/head/day, treatment, pre-treatment 60.8, control treatment 62.7): 56.0%
- Total acid ([3]; Example 8, 500 mg/head/day, treatment, pre-treatment 715, control treatment 678): 731 mg/100 ml
- effect on acetic:propionic ratio (in words) ([3]; fistulated sheep, 7 days): decreasing the acetic:propionic ratio
- effect on proportion of propionic acid (in words) ([3]; fistulated sheep, 7 days): effective in increasing the proportion of propionic acid
